Measured values reported in article PMC9532399, “The lysosomal transporter TAPL has a dual role as peptide translocator and phosphatidylserine floppase” (Nature Communications, 2022).
Numbering of substitutions follows the chain as printed. No end group written: not given here.

B1: mouse TAPL truncation mutant devoid of the N-terminal 142 residues (ΔTMD0) (domain or fragment, UniProt Q9JJ59 143-762, looked up)
chain: DAEALEPGNEGFHGEGGAPAEQASGATLQKLLSYTKPDVAFLVAASFFLIVAALGETFLPYYTGRAIDSIVIQKSMDQFTTAVVVVCLLAIGSSLAAGIRGGIFTLVFARLNIRLRNCLFRSLVSQETSFFDENRTGDLISRLTSDTTMVSDLVSQNINIFLRNTVKVTGVVVFMFSLSWQLSLVTFMGFPIIMMVSNIYGKYYKRLSKEVQSALARASTTAEETISAMKTVRSFANEEEEAEVFLRKLQQVYKLNRKEAAAYMSYVWGSGLTLLVVQVSILYYGGHLVISGQMSSGNLIAFIIYEFVLGDCMESVGSVYSGLMQGVGAAEKVFEFIDRQPTMVHDGSLAPDHLEGRVDFENVTFTYRTRPHTQVLQNVSFSLSPGKVTALVGPSGSGKSSCVNILENFYPLQGGRVLLDGKPIGAYDHKYLHRVISLVSQEPVLFARSITDNISYGLPTVPFEMVVEAAQKANAHGFIMELQDGYSTETGEKGAQLSGGQKQRVAMARALVRNPPVLILDEATSALDAESEYLIQQAIHGNLQRHTVLIIAHRLSTVERAHLIVVLDKGRVVQQGTHQQLLAQGGLYAKLVQRQMLGLEHPLDYTASHKEPPSNTEHKA
notes: mouse TAPL (ABCB9), protein of 762 amino acids, lacking the N-terminal 142 residues (TMD0); Homodimer by the cryo-EM structures; A thrombin site stood between TAPL and eGFP-10XHis; residues of the site may be left at the C-terminus after cleavage; also called ABCB9; TAP-like; source: High Five (Hi5) insect cells, baculovirus; purified (anti-GFP DARPin agarose, on-column thrombin cleavage, gel …)
B2: Cy5-labeled 9-mer peptide RRYQNSTC(Cy-5)L (peptide)
peptide: RRYQNSTC(Cy5)L
notes: synthetic 9-mer peptide with a single cysteine for labeling; also called Cy5-labeled peptide; source: synthetic peptide (ANYGEN Co., Ltd.), labeled with Cy5, desalted
B3: 9-mer peptide RRYQKSTEL (peptide)
peptide: RRYQKSTEL
notes: short synthetic peptide known to be transported by human TAPL; source: synthetic peptide (ANYGEN Co., Ltd.)

Experiments:
[1] = biological target: T1, mouse TAPL ΔTMD0 (Mus musculus, UniProt Q9JJ59); assay: Lipid-stimulated ATPase assay, DM-purified ΔTMD0; format: biochemical
T1 construct: thrombin cleavage site (C); eGFP (C); 10XHis (C); made in house; host or cells: Trichoplusia ni High Five (Hi5) insect cells, baculovirus (pVL1393)
T1 sequence (Q9JJ59 143-762): B1 chain
Protocol: (§1) The ATPase activities of proteins obtained after various purification procedures were determined by NADH-coupled spectrophotometric assays. 10 μg of DM-purified or nanodisc-reconstituted protein was added to 140 μL of reaction buffer containing 50 mM HEPES–KOH pH 8.0, 60 μg/mL pyruvate kinase (Roche), 16 μg/mL lactate dehydrogenase (Roche), 10 mM phosphoenolpyruvate (Roche), 0.3 mM NADH, 3 mM ATP, 10 mM MgCl2, and 0.17% (w/v) DM in the presence or absence of 250 μM peptide. For proteins reconstituted into nanodiscs, DM was not added to the reaction buffer. For lipid-stimulated ATPase assays, the thin film of lipids was hydrated in 100 μL of buffer containing 50 mM HEPES–KOH pH 8.0 and 10 mM MgCl2 to yield a 10 mM solution. After sonication of the lipid solution for 10 min to decrease its turbidity, the reaction was initiated by adding varying concentrations of lipids to the mixture. ATP hydrolysis activity was monitored at 37 °C for 3 min by measuring the rate of decline of NADH absorbance at 340 nm. To inhibit ATP hydrolysis, the reaction mixture was incubated with 3 mM AMP-PNP or 8 mM NaF/2 mM BeSO4 for 5 min at RT. The kinetic parameters of ATP hydrolysis were calculated by fitting the initial rates of ATP hydrolysis to the Michaelis–Menten equation using PRISM 4.0 (GraphPad software).

[2] = biological target: T2, TAPL Y405A mutant (Mus musculus, UniProt Q9JJ59, Y405A); assay: Lipid-stimulated ATPase assay, DM-purified Y405A mutant; format: biochemical; conditions: Y405A vs WT
T2 construct: thrombin cleavage site (C); eGFP (C); 10XHis (C); made in house; host or cells: Trichoplusia ni High Five (Hi5) insect cells, baculovirus (pVL1393)
T2 sequence (Q9JJ59 143-762 Y405A): B1 chain with Y263A
Protocol: as §1

[3] = biological target: T1, mouse TAPL ΔTMD0; assay: Dithionite-based flip-flop (floppase) assay of NBD*-labeled lipids, ΔTMD0 proteoliposomes; format: biochemical; conditions: 10% (mol/mol) unlabeled POPS, or presence of the 9-mer peptide
Protocol: All lipids used in reconstitution were purchased from Avanti Polar Lipids, Inc. (purity > 99%). The in vitro flip–flop assay was performed using NBD* dye-labeled proteoliposomes as described previously. Briefly, E. coli polar lipids and egg PC were mixed in a 1:1 molar ratio, and 0.5% (mol/mol) NBD*-lipid was added. The lipid mixture was then dried under nitrogen gas. The NBD*-lipids used were 18:1-06:0 NBD*-PS (1-oleoyl-2-{6-[(7-nitro-2-1,3-benzoxadiazol-4-yl)amino]hexanoyl}-sn-glycero-3-phosphoserine), 18:1-06:0 NBD*-PC (1-oleoyl-2-{6-[(7-nitro-2-1,3-benzoxadiazol-4-yl)amino]hexanoyl}-sn-glycero-3-phosphocholine), 18:1-06:0 NBD*-PG (1-oleoyl-2-{6-[(7-nitro-2-1,3-benzoxadiazol-4-yl)amino]hexanoyl}-sn-glycero-3-[phospho-rac-(1-glycerol)]), 18:1-06:0 NBD*-PE (1-oleoyl-2-{6-[(7-nitro-2-1,3-benzoxadiazol-4-yl)amino]hexanoyl}-sn-glycero-3-phosphoethanolamine), and 25-NBD*-Cholesterol (25-[N-[(7-nitro-2-1,3-benzoxadiazol-4-yl)methyl]amino]−27-norcholesterol). Thin lipid films were solubilized in 20 mM HEPES–NaOH pH 8.0, 200 mM NaCl and 5% (v/v) glycerol, incubated at RT for 30 min and subjected to 5 freeze–thaw cycles. After extrusion with a Mini-Extruder at 65 °C, final lipid concentrations were determined by phosphorus assays. Briefly, 10 μL of extruded lipid was added to 10 μL of 2% (w/v) ammonium molybdate and 300 μL of concentrated perchloric acid. The mixture was heated at 250 °C for 30 min, then cooled to RT and mixed with 1.5 mL of 0.4% (w/v) ammonium molybdate and 250 μL of 9% (w/v) L-ascorbic acid. It was again heated at 100 °C for 6 min and cooled to RT. Lipid concentrations were calculated from the absorbance at 820 nm using a standard curve prepared with NaH2PO4 solution. After accurately determining the lipid concentration, DM-purified protein and 5 mM lipid suspension (solubilized in 5 mM DM) were mixed 1:25 (w/w). After incubation at 4 °C for 1.5 h, DM detergent was removed with 75 mg Bio-beads SM-2 by periodic gentle shaking for 1 h at 4 °C (Supplementary Fig. 5a). The beads were replaced once, followed by an additional incubation at 4 °C for 2 h to completely remove detergent. The resulting proteoliposomes were collected by ultracentrifugation at 200,000×g for 1.5 h at 4 °C.
To measure the flip–flop activity, 10 μL of 2 mM NBD*-labeled proteoliposomes were added to 100 μL of reaction buffer (20 mM HEPES–NaOH pH 8.0, 200 mM NaCl, 5 mM ATP and 5% (v/v) glycerol) in the presence of 2 mM MgCl2 (or NaCl), and incubated at 37 °C for 1 h. The mixture was transferred to a 96-well plate and time-dependent fluorescence (λex/λem = 460/538 nm) was recorded every 30 s for 26 min using a fluorescence spectrophotometer (Gemini XPS). After the baseline fluorescence had stabilized, 10 mM sodium dithionite was added to quench the fluorescence of NBD*-lipid present in the outer leaflets of the liposomes. The initial rapid drop and subsequent slow decline in fluorescence intensity were monitored. When a new steady state was established, 1% (v/v) Triton X-100 was added to completely disrupt the liposomes. The net percentage of NBD*-lipid translocated across the lipid bilayer was calculated from the following equation[72]: the percentage of protected NBD*-lipid in the inner leaflet = [(FD−F0)/(FT−F0)]×100, and that of accessible NBD*-lipid in the outer leaflet = [(FT−FD)/(FT−F0)]×100, where FT is the total fluorescence of the sample before the addition of dithionite, FD is the fluorescence of the sample after quenching with dithionite, and F0 is any residual fluorescence of the sample after solubilization with Triton X-100. Fluorescence values (FT, FD, F0) were calculated as the averages of 5 points on the respective plateau lines. The ΔTMD0-mediated lipid floppase activity was determined by subtracting the percentage of NBD*-lipid fluorescence measured in the presence of Na^+/ATP from that measured in the presence of Mg^2+/ATP.

[4] = biological target: the molecule itself; assay: cryo-EM structure; ΔTMD0 in nanodiscs of E. coli polar lipids, no peptides or nucleotides; inward-facing, 3.4 Å
[5] = biological target: B1; assay: MST; 0.2 μM Cy5-labeled peptide with serial 2-fold dilutions of DM-purified protein, 10 min at RT; Monolith NT.115 pico; conditions: both partners purified
[6] = biological target: T3, mouse TAPL ΔTMD0 Y405A mutant (mouse, UniProt Q9JJ59 143-762, Y405A); assay: as above; conditions: both partners purified
T3 construct: mouse TAPL (ABCB9) lacking the N-terminal 142 residues (TMD0), with Y405A; source: High Five (Hi5) insect cells, baculovirus; DM-purified; not shown: eGFP, C-terminal, cleaved; His10, C-terminal, cleaved
T3 sequence (looked up): B1 chain with Y263A

[7] = biological target: B1; assay: cryo-EM structure; DM/CHS-purified ΔTMD0 with 1 mM 9-mer peptide, on ice for 30 min; inward-facing, 4.0 Å; conditions: both partners purified
[8] = lipid stimulation, 3 mM ATP, means ± SEM

## CC(C)CCC[C@@H](C)[C@H]1CC[C@H]2[C@@H]3CC=C4C[C@@H](OC(=O)CCC(=O)O)CC[C@]4(C)[C@H]3CC[C@]12C [CHS, cholesteryl hemisuccinate]
[1]; CHS vs POPG
  Vmax relative to POPG-stimulated ATPase activity: ~ 51%
[1]; lipid stimulation, 3 mM ATP
  maximal ATPase activity (turnover): 80 min⁻¹
[1]; [8]
  Km: 127 ± 28 µM
  maximal ATPase activity (Vmax): 589 ± 18 nmol/mg/min
[2]
  response of Y405A ATPase to lipid: significantly reduced basal and lipid-stimulated ATPase activity

## CCCCCCCC/C=C\CCCCCCCC(=O)O[C@H](COC(=O)CCCCCCCCCCCCCCC)COP(=O)(O)OC[C@H](N)C(=O)O [POPS, 1-palmitoyl-2-oleoyl-sn-glycero-3-phospho-l-serine]
[1]; lipid stimulation, 3 mM ATP
  maximal ATPase activity (turnover): 109 min⁻¹
[1]; [8]
  maximal ATPase activity (Vmax): 808 ± 44 nmol/mg/min
[2]
  response of Y405A ATPase to lipid: significantly reduced basal and lipid-stimulated ATPase activity
[3]
  effect on translocation of NBD*-PS: significantly inhibited

## B1
[4]
  stoichiometry N: 2

## B2
[5]
  Kd: 51.9 nM
[6]
  Kd: 3800 nM

## B3
[7]
  binding result: binds
